Measurements taken from patent US20200085784A1, “METHODS TO TREAT FIBROSIS, NASH, AND NAFLD” (Minneamrita Therapeutics, LLC, priority 2018, published 2020).
Structures can show the parent of a compound that is named as a salt.

Experiments:
[1] = test system: CCl4-induced liver fibrosis; test: Mouse model of carbon tetrachloride (CCl4) liver fibrosis; type: in vivo, C57Bl6/J mice
Protocol: Two animal models were used: Mouse model of Carbon tetrachloride (CCl4). In this model, C57Bl6/J mice (8 weeks of age; ˜25 g) received twice a week during 4 weeks 250 μL i.p. of either olive oil or CCl4 at a dose of 3.5 ml/kg diluted in olive oil. Animals were treated with 0.2 mg/kg Minnelide after 4 weeks of CCl4.
(§1) For both models, injury and fibrosis were determined by examination of histological specimens by H&E staining as well as picrosirius red staining.

DIO-NASH mouse model = test: Diet-induced obese (DIO) mouse model of non-alcoholic steatohepatitis (NASH); type: in vivo, C57BL/6JRj mice; conditions: Minnelide 0.1 mg/kg PO QD, 8 weeks; compared to vehicle treated control DIO-NASH mice
Source text: To investigate the effect of 8 weeks of treatment with Minnelide alone and in combination with Elafibranor or Liraglutide in DIO-NASH mouse model, metabolic parameters, hepatic pathology and NAFLD Activity Score (NAS) including Fibrosis Stage data were collected.
Male […] mice were obtained from Janvier Labs (Le Genest Saint Isle, France). Mice had ad libitum access to tap water and either regular rodent chow (Altromin 1324, Brogaarden, Hoersholm, Denmark), or a diet high in fat (40%, containing 18% trans-fat), 40% carbohydrates (20% fructose) and 2% cholesterol (AMLN diet; D09100301, Research Diets, New Brunswick, N.J.). C57BL/6JRj mice were fed regular chow as lean chow vehicle control group or AMLN diet as DIO-NASH mice for 35 weeks prior to treatment start.
All animals included in the drug treatment experiments underwent liver biopsy for baseline characterization of hepatic parameters and stratified randomization into treatment groups. Mice are anesthetized by inhalation anesthesia using isoflurane (2-3%). […] A stratified randomization into treatment groups is performed according to liver Collagen 1a1 quantification. […]
Biochemical and histological analyses were performed as reported previously (Tølbøl, et al. World J Gastroenterol. Jan. 14, 2018; 24(2): 179-194). […] Liver homogenates were analyzed for TG and TC. […]

[2] = test system: DEN+CCl4-induced liver fibrosis; test: Mouse model of CCl4+Diethylnitrosamine (DEN)-induced liver injury; type: in vivo, C57Bl6/J mice; conditions: for DEN+CCl4-induced collagen deposition (Massons Trichrome and Sirius red staining): Minnelide 0.2 mg/kg, compared to the vehicle
Protocol: Mouse model of CCl4+Diethylnitrosamine (DEN)-induced liver injury. C57Bl6/J mice (3 weeks of age; ˜15 g) received one single dose of DEN (25 mg/kg). From 8 weeks of age; (˜25 g) they receive twice a week during 4 weeks 250 μL i.p. of either olive oil or CCl4 at a dose of 0.2 ml/kg diluted in olive oil. Animals were treated with 0.2 mg/kg Minnelide after 4 weeks of CCl4.
as §1

[3] = therapeutic intervention, CCl4 induced liver fibrosis
[4] = therapeutic intervention, DEN+CCl4 induced liver fibrosis

CC(C)[C@]12O[C@H]1[C@@H]1O[C@]13[C@]1(O[C@H]1C[C@H]1C4=C(CC[C@@]13C)C(=O)OC4)[C@@H]2OCOP(=O)(O)O [Minnelide, 14-O-phosphonooxymethyltriptolide disodium salt]
reduced: steatosis, ballooning, and inflammatory foci (liver H&E staining) ([1]; CCl4 administration, 8 week time point) | α-SMA expression (immunofluorescence staining) ([1]; CCl4 model) | steatosis, ballooning, and inflammatory foci (liver H&E staining) ([2]; 12 week time point) | steatosis, ballooning, and inflammatory foci (liver H&E staining) ([2]; DEN+CCl4 administration, 8 week time point) | α-SMA expression (immunofluorescence staining) ([2]; DEN+CCl4 model)
inhibited: CCl4-induced collagen deposition (Massons Trichrome and Sirius red staining) ([1]; Minnelide 0.2 mg/kg, compared to the vehicle) | DEN+CCl4-induced collagen deposition (Massons Trichrome and Sirius red staining) [2] | DEN+CCl4-induced collagen deposition (Massons Trichrome and Sirius red staining) ([2]; 12 week time point paragraph)
decreased: expression of Tnf-α, IL6, IL-1β and iNOS (inflammation associated genes) ([2]; 8 week time point) | expression of inflammasome genes (NLRP3, apoptosis-associated speck-like protein containing a CARD, caspase1, IL-1β, IL18) ([2]; 8 week time point)
reduction: fibrosis [1, 3] | plasma biochemical markers [1, 3] | fibrosis [2, 4] | plasma biochemical markers [2, 4]
18.41%: reduction in liver Galectin-3 (% fractional area) (DIO-NASH mouse model)
